How the values were obtained:
[1] = LPS binding assay (coated wells); design: species or system E. coli
Procedure: K. pneumoniae (3×10^5 CFU/well), E. coli O111:B4 smooth-type LPS (5 μg/well), or bovine serum albumin (BSA, 5 μg/well) in 100 μL of bicarbonate buffer (pH 9.6) were coated onto wells of high-binding microtiter plate (Corning Costar, Cambridge, Mass.). Nonspecific binding was blocked with binding buffer (20 mM Tris-HCl, pH 7.4, 0.15 M NaCl, 5 mM CaCl2) containing 50 mg/mL BSA. Various concentrations of rTMD proteins without or with CD14 (10 μg/mL; R&D Systems) in binding buffer containing 1 mg/mL BSA were added to wells and incubated for 2 hours. In some experiments, 0.2 M mannose, 5 mM EDTA, or Le^y were included in the binding buffer to compete with LPS and rTMD1 binding. Antibody against the c-Myc epitope of the rTMD proteins was added to wells and incubated for 2 hours, and peroxidase-labeled secondary antibody followed. Binding of rTMD proteins was detected by measuring absorbance at 450 nm.

K. pneumoniae = experiment: Bacterial agglutination, FITC-labeled K. pneumoniae; conditions: 0.2 M mannose or 5 mM EDTA
Procedure: (§1) K. pneumoniae and E. coli DH5α (BCRC) were washed twice in 0.1 M sodium bicarbonate buffer (pH 9.6) and incubated with 0.1 mg/mL fluorescein isothiocyanate (FITC) at 37° C. in the dark. Each of 20 μg/mL of rTMD1, non-tagged rTMD1, mammalian rTMD1, and recombinant TM domains 2 and 3 (rTMD23) was co-incubated with FITC-labeled bacteria (1×10^5CFU/mL) in buffer (20 mM Tris, pH 7.4, 0.15 M NaCl, 5 mM CaCl2, 1 mg/mL BSA) with or without 0.2 M mannose or 5 mM EDTA. Samples were individually placed on a glass slide and fluorescently-labeled bacteria were observed microscopically to evaluate agglutination.

E. coli DH5α = experiment: Bacterial agglutination, FITC-labeled E. coli DH5α; conditions: 0.2 M mannose or 5 mM EDTA
Procedure: as §1

rTMD1 [2] = biological target: T1, rTMD1 (Homo sapiens, UniProt P07204); experiment: rTMD1 ligand analysis (AlphaScreen); assay type: binding; conditions: mammalian- or Pichia-expressed rTMD1
T1 construct: TMD1 (residues Ala^1-Ala^155); made in house
Procedure: Biotin-polyacrylamide (Biotin-PAA)-sugars (GlycoTech, Rockville, Mass.), rTMD1, rabbit anti-mouse IgG antibody (Zymed), mouse anti-6× His tag antibody (Abcam, Cambridge, UK), and streptavidin-coated donor and protein A conjugated acceptor beads (PerkinElmer, Boston, Mass.) were diluted with assay buffer containing 25 mM Tris (pH 7.0), 25 mM CaCl2, and 1 mg/mL BSA to appropriate concentrations. The anti-6× His tag antibody, rabbit anti-mouse IgG antibody, and acceptor beads were incubated with assay buffer for 1 hour at 25° C. before use (as the acceptor mixture). Biotin-PAA-sugars, rTMD1, and donor beads were separately added to wells of ProxiPlate-384 assay plates (PerkinElmer) and incubated at 25° C. for 1 hour. An aliquot of the acceptor mixture was then added to the wells and incubated at 25° C. for another 2 hours. The results were read on a PerkinElmer Envision instrument using the AlphaScreen program. All the procedures and incubations were carried out in the dark.

rTMD1 [3] = experiment: Effect of Le^y on the blocking effect of rTMD1 on LPS-induced signaling pathways (Western blot); assay type: cell-based; conditions: rTMD1 20 μg/mL, LPS 100 ng/mL
Procedure: rTMD1 (0-50 μg/mL, equals 0-2.18 nmole/mL) pre-incubated without or with Escherichia coli (E. coli) LPS (LPS O111:B4, Sigma-Aldrich) in the absence or presence of Lewis Y (Le^y; Dextra Laboratories, Reading, UK) for 30 minutes was used to stimulate THP-1 or RAW 264.7 cells. Incubation period included 15 minutes for pIκB and IκB (B-9 and C-21, Santa Cruz Biotechnology, Santa Cruz, Calif., unless otherwise noted), 20 minutes for p38 (C-20) and pp38 (D-8), 30 minutes for ERK1/2 (K-23), pERK1/2 (E-4), lamin B2 (E-3, Zymed Laboratories, San Francisco, Calif.), NF-κB p50 (C-19) and NF-κB p65 nuclear translocation (C-20), and 24 hours for iNOS expression using a specific antibody (N-20).

[4] = biological target: T2, HMGB1 and rTMD1 interaction (Homo sapiens, UniProt P07204); experiment: Effect of Le^y on the binding of HMGB1 with rTMD1
T2 construct: TMD1 (residues Ala^1-Ala^155); 6xHis (C); enterokinase cutting site (internal); made in house
T2 sequence (P07204 19-173): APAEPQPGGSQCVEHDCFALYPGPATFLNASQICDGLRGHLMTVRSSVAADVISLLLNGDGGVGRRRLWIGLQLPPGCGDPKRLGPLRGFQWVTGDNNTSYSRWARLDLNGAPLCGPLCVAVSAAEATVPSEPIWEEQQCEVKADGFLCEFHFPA
T2 sequence (P09429 whole entry partner): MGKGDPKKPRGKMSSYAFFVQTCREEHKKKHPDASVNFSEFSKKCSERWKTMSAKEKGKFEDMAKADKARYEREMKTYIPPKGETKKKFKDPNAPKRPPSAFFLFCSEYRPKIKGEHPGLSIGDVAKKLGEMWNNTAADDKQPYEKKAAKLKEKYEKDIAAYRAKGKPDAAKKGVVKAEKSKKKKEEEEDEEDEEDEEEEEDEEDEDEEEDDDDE

T1 sequence (P07204 19-173): as the sequence (P07204 19-173) above

| Compound | effect on binding of rTMD1 to LPS ([1]; 0.2 M mannose or 5 mM EDTA, rTMD1 50 μg/mL) | effect on rTMD1 agglutination activity, K. pneumoniae (K. pneumoniae) | effect on rTMD1 agglutination activity, E. coli DH5α (E. coli DH5α) | effect on binding of rTMD1 with LPS ([1]; various concentrations of Le^y, FIG. 6B) | rTMD1 affinity of carbohydrate ligand (rTMD1 [2]) | effect on blocking effects of rTMD1 on LPS-induced ERK1/2 phosphorylation, IκBα degradation, and NF-κB p50 and p65 nuclear translocation (rTMD1 [3]) | effect on HMGB1 and rTMD1 interaction [4] |
| --- | --- | --- | --- | --- | --- | --- | --- |
| O=C(O)CN(CCN(CC(=O)O)CC(=O)O)CC(=O)O [EDTA, reference compound] | inhibited | attenuated | attenuated |  |  |  |  |
| Fucα1-2Galβ1-4(Fucα1-3)GlcNAc [Le^y] |  |  |  | specifically inhibited | specific ligand | dose-dependently neutralize | could not abrogate |

From patent US20120165244A1, “METHODS FOR BINDING LEWIS Y ANTIGEN” (priority 2008, published 2012)
